Laboratory results: the Kinase Knowledgebase extract (Sharma et al. 2016)

Target: MAPK14 (human) (UniProt Q16539)
Assay: Inhibition of MAPK14 Kinase Activity

Sequence of MAPK14 (human) (Q16539 whole entry, looked up): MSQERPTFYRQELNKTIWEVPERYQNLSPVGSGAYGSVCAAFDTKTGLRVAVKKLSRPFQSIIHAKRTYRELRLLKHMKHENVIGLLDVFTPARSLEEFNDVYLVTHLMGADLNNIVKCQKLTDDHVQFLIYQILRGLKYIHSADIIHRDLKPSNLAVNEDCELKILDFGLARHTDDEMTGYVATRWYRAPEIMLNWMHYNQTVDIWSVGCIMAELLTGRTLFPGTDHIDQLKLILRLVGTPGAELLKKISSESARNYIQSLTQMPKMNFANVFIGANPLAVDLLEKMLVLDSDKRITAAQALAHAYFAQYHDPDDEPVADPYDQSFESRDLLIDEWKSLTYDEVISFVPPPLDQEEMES

Row | Structure (SMILES) | IC50
1 | CC(=O)Nc1ccc(Cl)c(N2CC(Cc3ccc(F)cc3F)CN(C)C2=O)c1Cl (stereo not given) | ≤ 10 µM
2 | CN(C)CCNc1cc(Cl)c(N2CC(Cc3ccccc3F)CCC2=O)c(Cl)c1 (stereo not given) | ≤ 10 µM
3 | O=C1CCC(Cc2cc(F)cc(F)c2)CN1c1c(Cl)cncc1Cl (stereo not given) | ≤ 10 µM
4 | O=C(Cc1ccccc1)Nc1ccc(Cl)c(N2CC(Cc3ccc(F)cc3F)CSC2=O)c1Cl (stereo not given) | ≤ 10 µM
5 | Cc1ccccc1SC1CCC(=O)N(c2c(Cl)csc2Cl)C1 (stereo not given) | ≤ 10 µM
6 | O=C1CCC(Oc2ccccc2Cl)CN1C1C(Cl)CCCC1Cl (stereo not given) | ≤ 10 µM
7 | O=C1CCC(Oc2ccc(F)cc2F)CN1C1C(Cl)CCCC1Cl (stereo not given) | ≤ 10 µM
8 | CN1CC(Cc2ccc(F)cc2F)CN(c2c(Cl)cc(NC(=O)Cc3ccccc3)cc2Cl)C1=O (stereo not given) | ≤ 10 µM
9 | O=C1CCC(Cc2ccc(F)cc2F)CN1c1c(Cl)sc(CO)c1Cl (stereo not given) | ≤ 10 µM
10 | O=C1CCC(Cc2ccccc2F)CN1c1c(Cl)csc1Cl (stereo not given) | ≤ 10 µM
11 | O=C1CCC(Oc2ccccc2)CN1c1c(Cl)csc1Cl (stereo not given) | ≤ 10 µM
12 | COC(=O)/C=C/c1ccccc1CC1CCC(=O)N(c2c(C)cccc2C)C1 (stereo not given) | ≤ 10 µM
13 | O=C1CCC(Oc2ccccc2F)CN1c1c(Cl)csc1Cl (stereo not given) | ≤ 10 µM
14 | COC(=O)CCc1cc(Cl)c(N2CC(Cc3ccc(F)cc3F)CCC2=O)c(Cl)c1 (stereo not given) | ≤ 10 µM
15 | CNC1CC(Cl)C(N2CC(Cc3ccc(F)cc3F)CCC2=O)C(Cl)C1 (stereo not given) | ≤ 10 µM
16 | CN(C)CCCc1cc(Cl)c(N2CC(Cc3ccc(F)cc3F)CCC2=O)c(Cl)c1 (stereo not given) | ≤ 10 µM
17 | O=C1CCC(Sc2cc(Cl)cc(Cl)c2)CN1c1c(Cl)cccc1Cl (stereo not given) | ≤ 10 µM
18 | CNc1ccc(Cl)c(N2CC(Oc3ccc(F)cc3F)CCC2=O)c1Cl (stereo not given) | ≤ 10 µM
19 | COc1ccc(CC2CNC(=O)N(c3c(Cl)cccc3Cl)C2)cc1 (stereo not given) | ≤ 10 µM
20 | CN1CC(Cc2ccc(F)cc2F)CN(c2c(Cl)ccc(N)c2Cl)C1=O (stereo not given) | ≤ 10 µM
21 | Nc1cc(Cl)c(N2CC(Oc3ccc(F)cc3F)CCC2=O)c(Cl)n1 (stereo not given) | ≤ 10 µM
22 | COc1ccc(SC2CCC(=O)N(c3c(Cl)cccc3Cl)C2)cc1 (stereo not given) | ≤ 10 µM
23 | COc1ccc(CC2CN(c3c(Cl)cccc3Cl)C(=O)CS2)cc1 (stereo not given) | ≤ 10 µM
24 | O=C(Cc1ccccc1)NC1CC(Cl)C(N2CC(Oc3ccc(F)cc3F)CCC2=O)C(Cl)C1 (stereo not given) | ≤ 10 µM
25 | NNC(=O)CNc1cc(Cl)c(N2CC(Cc3ccc(F)cc3F)CCC2=O)c(Cl)c1 (stereo not given) | ≤ 10 µM
26 | O=C1CCC(Oc2ccccc2Cl)CN1c1c(Cl)csc1Cl (stereo not given) | ≤ 10 µM
27 | Nc1cc(Cl)c(N2CC(Cc3ccc(F)cc3F)CCC2=O)c(Cl)c1 (stereo not given) | ≤ 10 µM

Row | Structure (SMILES) | IC50
28 | COc1ccccc1OC1CCC(=O)N(c2c(Cl)cccc2Cl)C1 (stereo not given) | ≤ 10 µM
29 | O=C(Cc1ccccc1)Nc1cnc(Cl)c(N2CC(Cc3ccc(F)cc3F)CCC2=O)c1Cl (stereo not given) | ≤ 10 µM
30 | N[C@@H](Cc1ccc(O)cc1)C(=O)Nc1cc(Cl)c(N2CC(Cc3ccc(F)cc3F)CCC2=O)c(Cl)c1 (stereo not given in full) | ≤ 10 µM
31 | Cc1ccccc1CC1CCC(=O)N(c2c(Cl)ccnc2Cl)C1 (stereo not given) | ≤ 10 µM
32 | CC(C)(C)OC(=O)N(CCN)c1cc(Cl)c(N2CC(Cc3ccc(F)cc3F)CCC2=O)c(Cl)c1 (stereo not given) | ≤ 10 µM
33 | CN(C)CCCNc1cc(Cl)c(N2CC(Cc3ccc(F)cc3F)CCC2=O)c(Cl)c1 (stereo not given) | ≤ 10 µM
34 | O=C1SCC(Cc2ccc(F)cc2F)CN1c1c(Cl)ccc(O)c1Cl (stereo not given) | ≤ 10 µM
35 | CC(=O)Nc1cc(Cl)c(N2CC(Sc3ccc(F)cc3F)CCC2=O)c(Cl)c1 (stereo not given) | ≤ 10 µM
36 | O=C1CCC(Sc2ccc(Cl)cc2Cl)CN1C1C(Cl)CCCC1Cl (stereo not given) | ≤ 10 µM
37 | Nc1ccc(Cl)c(N2CC(Cc3ccc(F)cc3F)CNC2=O)c1Cl (stereo not given) | ≤ 10 µM
38 | O=C1CCC(Oc2ccccc2F)CN1C1C(Cl)CCCC1Cl (stereo not given) | ≤ 10 µM
39 | O=C1CCC(Sc2cccc3ccccc23)CN1c1c(Cl)ccnc1Cl (stereo not given) | ≤ 10 µM
40 | COc1ccc(CC2CN(c3c(Cl)cccc3Cl)C(=O)CO2)cc1 (stereo not given) | ≤ 10 µM
41 | CN1CCN(c2cc(Cl)c(N3CC(Cc4ccc(F)cc4F)CCC3=O)c(Cl)c2)CC1 (stereo not given) | ≤ 10 µM
42 | O=C1CCC(Sc2ccccc2F)CN1c1c(Cl)cncc1Cl (stereo not given) | ≤ 10 µM
43 | Cc1cc(C)cc(SC2CCC(=O)N(c3c(Cl)cccc3Cl)C2)c1 (stereo not given) | ≤ 10 µM
44 | O=C(Cc1ccccc1)Nc1sc(Cl)c(N2CC(Oc3ccc(F)cc3F)CCC2=O)c1Cl (stereo not given) | ≤ 10 µM
45 | O=C1CCC(Oc2ccc(Cl)cc2Cl)CN1c1c(Cl)cncc1Cl (stereo not given) | ≤ 10 µM
46 | O=C(Cc1ccccc1)Nc1cnc(Cl)c(N2CC(Oc3ccc(F)cc3F)CCC2=O)c1Cl (stereo not given) | ≤ 10 µM
47 | Cc1ccc(CC2CCC(=O)N(c3c(Cl)ccnc3Cl)C2)c(C)c1 (stereo not given) | ≤ 10 µM
48 | O=C1CCC(Sc2ccc(F)cc2F)CN1c1c(Cl)cccc1Cl (stereo not given) | ≤ 10 µM
49 | O=C(Cc1ccccc1)Nc1cc(Cl)c(N2CC(Sc3ccc(F)cc3F)CCC2=O)c(Cl)n1 (stereo not given) | ≤ 10 µM
50 | CC(C)(C)C(=O)Nc1cc(Cl)c(N2CC(Cc3ccc(F)cc3F)CCC2=O)c(Cl)c1 (stereo not given) | ≤ 10 µM
51 | O=C1CCC(Cc2ccc(F)cc2F)CN1c1c(Cl)cncc1Cl (stereo not given) | ≤ 10 µM
52 | CN(C)CCNC(=O)CNc1cc(Cl)c(N2CC(Cc3ccc(F)cc3F)CCC2=O)c(Cl)c1 (stereo not given) | ≤ 10 µM
53 | O=C1CCC(Cc2ccc(F)cc2F)CN1c1c(Cl)ccc(O)c1Cl (stereo not given) | ≤ 10 µM
54 | Cc1cccc(C)c1N1CC(Cc2ccccc2C(=O)O)CCC1=O (stereo not given) | ≤ 10 µM

Row | Structure (SMILES) | IC50
55 | Cc1ccccc1SC1CCC(=O)N(c2c(Cl)ccnc2Cl)C1 (stereo not given) | ≤ 10 µM
56 | Nc1ncc(Cl)c(N2CC(Sc3ccc(F)cc3F)CCC2=O)c1Cl (stereo not given) | ≤ 10 µM
57 | COc1ccccc1CC1CN(C)C(=O)N(c2c(Cl)cccc2Cl)C1 (stereo not given) | ≤ 10 µM
58 | O=C1CSC(Cc2ccccc2)CN1c1c(Cl)cccc1Cl (stereo not given) | ≤ 10 µM
59 | C=C(c1ccc(F)cc1F)C1CCC(=O)N(c2c(Cl)cccc2Cl)C1 (stereo not given) | ≤ 10 µM
60 | Cc1ccccc1CC1CCC(=O)N(c2c(Cl)cncc2Cl)C1 (stereo not given) | ≤ 10 µM
61 | CC(C)(C)OC(=O)N(CC(=O)O)c1cc(Cl)c(N2CC(Cc3ccc(F)cc3F)CCC2=O)c(Cl)c1 (stereo not given) | ≤ 10 µM
62 | O=C1CCC(Sc2cc(F)cc(F)c2)CN1c1c(Cl)csc1Cl (stereo not given) | ≤ 10 µM
63 | CC(O)(c1ccc(F)cc1F)C1CCC(=O)N(c2c(Cl)cccc2Cl)C1 (stereo not given) | ≤ 10 µM
64 | CCOC(=O)CCCC(=O)Nc1cc(Cl)c(N2CC(Cc3ccc(F)cc3F)CCC2=O)c(Cl)c1 (stereo not given) | ≤ 10 µM
65 | CNc1cc(Cl)c(N2CC(Cc3ccc(F)cc3F)COC2=O)c(Cl)c1 (stereo not given) | ≤ 10 µM
66 | Cc1cc(C)cc(CC2CCC(=O)N(c3c(Cl)cncc3Cl)C2)c1 (stereo not given) | ≤ 10 µM
67 | Cc1ccc(CC2CN(C)C(=O)N(c3c(Cl)cccc3Cl)C2)cc1 (stereo not given) | ≤ 10 µM
68 | O=C1CCC(Oc2cccc3ccccc23)CN1C1C(Cl)CCCC1Cl (stereo not given) | ≤ 10 µM
69 | O=C1CCC(Sc2ccccc2F)CN1c1c(Cl)ccnc1Cl (stereo not given) | ≤ 10 µM
70 | O=C1CCC(Cc2ccccc2F)CN1c1c(Cl)cncc1Cl (stereo not given) | ≤ 10 µM
71 | Cc1cc(C(=O)N(C)C)cc(C)c1N1CC(Cc2ccc(F)cc2F)CCC1=O (stereo not given) | ≤ 10 µM
72 | Cc1ccccc1OC1CCC(=O)N(C2C(Cl)CCCC2Cl)C1 (stereo not given) | ≤ 10 µM
73 | O=C1CCC(Cc2ccc(F)cc2F)CN1c1c(Cl)cc(O)nc1Cl (stereo not given) | ≤ 10 µM
74 | O=C1[C@@H](O)C[C@@H](Cc2ccc(F)cc2F)CN1c1c(Cl)cccc1Cl | ≤ 10 µM
75 | Cc1cccc(C)c1N1C[C@@H](N(C)S(=O)(=O)c2ccc(F)cc2F)CCC1=O | ≤ 10 µM
76 | Cc1nc(CNc2cc(Cl)c(N3CC(Cc4ccc(F)cc4F)CCC3=O)c(Cl)c2)c[nH]1 (stereo not given) | ≤ 10 µM
77 | O=C1CCC(Sc2ccccc2)CN1c1c(Cl)cccc1Cl (stereo not given) | ≤ 10 µM
78 | O=C1CCC(Sc2ccccc2)CN1c1c(Cl)ccnc1Cl (stereo not given) | ≤ 10 µM
79 | Cc1cc(C)cc(CC2CN(C)C(=O)N(c3c(Cl)cccc3Cl)C2)c1 (stereo not given) | ≤ 10 µM
80 | O=C1NCC(Cc2cc(F)cc(F)c2)CN1c1c(Cl)cccc1Cl (stereo not given) | ≤ 10 µM
